We go through 1 compound from publication PMC6429214, “Design, Synthesis and Biological Evaluation of Isoxazole-Based CK1 Inhibitors Modified with Chiral Pyrrolidine Scaffolds” (Molecules, 2019).

Assay [1] has as its target T1, human GST-CK1ε (Homo sapiens, UniProt P49674).
T1 construct: purchased Invitrogen PV3500
The experiment in a line: in-vitro kinase assay CK1ε. Particulars: 10 µM ATP, mean ± SD, n = 3. It is filed as biochemical. Here is the method:
In vitro kinase assays have been performed to both screen, as well as to calculate IC50 values of the compounds for CK1δ and ε. Each reaction was carried out using 2 μCi ^32P-γ-ATP in kinase buffer containing 25 mM Tris-HCl (pH = 7.5), 10 mM MgCl2, 100 µM EDTA, and 10 µM ATP. […] Recombinant human CK1δ transcription variant 1 (expressed and purified as GST fusion protein as described earlier) and human GST-CK1ε (PV3500; Invitrogen) were used as sources of enzyme, while α-casein (C6780; Sigma-Aldrich) was used as substrate. Kinase reactions were incubated for 30 min at 30 °C and then stopped with loading dye (50 mM Tris-HCl (pH = 6.8), 5% (v/v) β-mercaptoethanol (MSH), 10% (v/v) glycerol, 2% (w/v) sodium dodecyl sulfate (SDS), 0.1% (w/v) bromphenol blue). Subsequently, reactions were separated by sodium dodecyl sulfate polyacrylamide gel electrophoresis (SDS-PAGE) and phosphorylated protein bands were visualized on dried gels by autoradiography. The phosphorylated substrate protein bands were excised, and phosphorylation was quantified by Cherenkov counting. Dose-response analyses and calculation of IC50 values were carried out using GraphPad Prism 6 statistical software (San Diego, CA, USA).

The subject of assay [2] is HT-29 cells. The experiment in a line: MTT cell viability assay HT-29. It is filed as cell-based, human. The conditions noted are these: Homo sapiens, HT-29, 48 h, mean ± SD. Here is the method:
The human colon adenocarcinoma cell line HT-29 was grown in McCoy’s 5A medium, whereas MCF7 cells were grown in DMEM medium. All media were supplemented with 10% fetal calf serum (FCS), 100 units/mL penicillin, 100 µg/mL streptomycin and 2 mM glutamine. All cells were grown at 37 °C in a humidified 5% carbon dioxide atmosphere.
In order to analyze the effects of selected inhibitors on the cell viability of HT-29 and MCF7 cells, MTT assays were performed. 1 × 10^4 cells/well were seeded in 96-well cell culture plates. After 24 h cells were treated with increasing concentrations of the indicated inhibitor compounds, with untreated and DMSO-treated cells as control. After an incubation period of 48 h, 10 µL of MTT solution (5 mg/mL in PBS) were added and cells were incubated for 4 h. MTT-containing medium was carefully removed and 100 µL acidic isopropanol (0.04 N HCl in isopropanol) per well were added. To dissolve formazan crystals, plates were shaken for 30 min on an orbital shaker in the dark. Finally, dissolved crystals were measured spectrophotometrically at 570 nm. All experiments were performed in triplicate with four technical replicates per assay. Results were normalized considering the mean optical density value of control wells as 100%. GraphPad Prism 6 software (San Diego, CA, USA) was used to calculate EC50 values.

The target in assay [3] is T2, MEK2 (Homo sapiens, UniProt P36507).
T2 construct: purchased ProQinase
T2 sequence (P36507 whole entry): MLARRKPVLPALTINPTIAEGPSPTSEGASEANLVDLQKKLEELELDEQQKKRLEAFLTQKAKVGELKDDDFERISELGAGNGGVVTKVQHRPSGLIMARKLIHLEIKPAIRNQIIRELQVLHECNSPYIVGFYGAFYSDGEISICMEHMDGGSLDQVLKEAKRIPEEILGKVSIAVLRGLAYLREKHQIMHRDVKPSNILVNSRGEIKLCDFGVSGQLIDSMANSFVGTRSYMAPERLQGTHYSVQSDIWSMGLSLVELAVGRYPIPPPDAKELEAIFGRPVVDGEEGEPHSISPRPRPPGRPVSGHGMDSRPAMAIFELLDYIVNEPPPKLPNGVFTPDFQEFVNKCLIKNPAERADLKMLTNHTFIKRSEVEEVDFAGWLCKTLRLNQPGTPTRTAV
The experiment in a line: 33PanQinase panel. Particulars: MEK2, 1 µM; read-out: Residual Activity (%). It is filed as biochemical. In short, it runs like this: (§1)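 Each reaction mix held 1% DMSO and 1 µM test compound; kinase activity was read radiometrically (33P) and normalised to DMSO control as percent residual activity.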

Assay [4] has as its target T3, PDGFR-alpha (Homo sapiens, UniProt P16234).
T3 construct: purchased ProQinase
Description: 33PanQinase panel. It is filed as biochemical. Particulars: read-out: Residual Activity (%). Put shortly: as §1

For assay [5], the target named is T4, ROCK2 (Homo sapiens, UniProt O75116).
T4 construct: purchased ProQinase
T4 sequence (O75116 whole entry): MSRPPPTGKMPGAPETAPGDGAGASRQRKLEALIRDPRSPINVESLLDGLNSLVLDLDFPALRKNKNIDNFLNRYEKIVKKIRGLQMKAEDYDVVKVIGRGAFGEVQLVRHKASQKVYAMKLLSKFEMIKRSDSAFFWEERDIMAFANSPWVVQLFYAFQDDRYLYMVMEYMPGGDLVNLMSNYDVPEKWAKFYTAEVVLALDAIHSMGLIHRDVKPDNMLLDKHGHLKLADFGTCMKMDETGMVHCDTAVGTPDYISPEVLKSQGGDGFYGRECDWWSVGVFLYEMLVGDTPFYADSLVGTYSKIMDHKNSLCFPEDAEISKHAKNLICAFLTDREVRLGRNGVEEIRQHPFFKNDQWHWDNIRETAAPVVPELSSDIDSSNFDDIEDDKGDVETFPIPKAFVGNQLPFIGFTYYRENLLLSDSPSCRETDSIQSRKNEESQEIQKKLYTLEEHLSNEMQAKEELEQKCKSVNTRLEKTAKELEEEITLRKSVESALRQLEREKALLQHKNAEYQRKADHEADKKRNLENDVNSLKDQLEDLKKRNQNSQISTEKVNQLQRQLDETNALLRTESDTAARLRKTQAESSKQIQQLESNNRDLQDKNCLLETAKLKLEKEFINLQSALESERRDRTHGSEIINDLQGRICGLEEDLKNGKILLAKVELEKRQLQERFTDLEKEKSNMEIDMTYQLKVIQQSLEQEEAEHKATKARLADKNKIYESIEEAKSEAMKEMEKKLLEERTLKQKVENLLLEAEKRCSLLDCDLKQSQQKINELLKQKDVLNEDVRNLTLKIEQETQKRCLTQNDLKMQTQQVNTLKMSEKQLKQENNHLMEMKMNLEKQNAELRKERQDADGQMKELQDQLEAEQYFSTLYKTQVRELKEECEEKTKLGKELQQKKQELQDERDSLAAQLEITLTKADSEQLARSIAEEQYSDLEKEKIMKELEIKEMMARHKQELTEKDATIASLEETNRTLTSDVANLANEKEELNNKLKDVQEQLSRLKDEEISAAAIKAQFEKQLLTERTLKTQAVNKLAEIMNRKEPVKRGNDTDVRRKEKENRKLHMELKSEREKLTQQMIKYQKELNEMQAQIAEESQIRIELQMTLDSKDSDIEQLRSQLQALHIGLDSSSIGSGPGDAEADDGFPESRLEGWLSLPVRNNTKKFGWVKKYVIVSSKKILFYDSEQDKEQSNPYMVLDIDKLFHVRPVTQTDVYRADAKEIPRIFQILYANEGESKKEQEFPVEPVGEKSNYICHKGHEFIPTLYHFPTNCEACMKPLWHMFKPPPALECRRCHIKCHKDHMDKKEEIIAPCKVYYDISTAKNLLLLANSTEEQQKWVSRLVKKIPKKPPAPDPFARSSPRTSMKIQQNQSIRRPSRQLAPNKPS
Description: 33PanQinase panel. It is filed as biochemical. Particulars: ROCK2, 1 µM; read-out: Residual Activity (%). Put shortly: as §1

The target of assay [6] is T5, TLK2 (Homo sapiens, UniProt Q86UE8).
T5 construct: purchased ProQinase
T5 sequence (Q86UE8 whole entry): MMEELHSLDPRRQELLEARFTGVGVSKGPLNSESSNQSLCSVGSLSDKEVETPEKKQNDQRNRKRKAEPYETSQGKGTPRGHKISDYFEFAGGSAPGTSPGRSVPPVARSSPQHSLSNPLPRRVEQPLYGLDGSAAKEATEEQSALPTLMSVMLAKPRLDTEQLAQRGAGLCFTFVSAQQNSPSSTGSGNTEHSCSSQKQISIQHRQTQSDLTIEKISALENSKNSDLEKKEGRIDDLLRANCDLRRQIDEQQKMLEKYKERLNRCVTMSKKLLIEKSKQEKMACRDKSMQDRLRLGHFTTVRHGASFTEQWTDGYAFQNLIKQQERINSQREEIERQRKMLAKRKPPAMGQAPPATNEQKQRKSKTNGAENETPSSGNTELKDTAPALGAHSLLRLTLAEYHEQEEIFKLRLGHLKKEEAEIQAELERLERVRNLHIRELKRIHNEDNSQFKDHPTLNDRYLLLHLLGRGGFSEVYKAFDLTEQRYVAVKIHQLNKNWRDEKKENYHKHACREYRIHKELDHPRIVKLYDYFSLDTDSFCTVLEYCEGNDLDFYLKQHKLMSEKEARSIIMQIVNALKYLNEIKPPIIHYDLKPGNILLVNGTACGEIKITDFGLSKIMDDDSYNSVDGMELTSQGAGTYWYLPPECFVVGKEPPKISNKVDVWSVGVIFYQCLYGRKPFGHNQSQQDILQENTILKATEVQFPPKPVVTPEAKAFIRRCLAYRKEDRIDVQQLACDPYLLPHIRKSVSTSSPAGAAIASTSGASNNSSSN
Description: 33PanQinase panel. The conditions noted are these: TLK2, 1 µM; read-out: Residual Activity (%). It is filed as biochemical. Put shortly:
as §1

T1 sequence (P49674 whole entry): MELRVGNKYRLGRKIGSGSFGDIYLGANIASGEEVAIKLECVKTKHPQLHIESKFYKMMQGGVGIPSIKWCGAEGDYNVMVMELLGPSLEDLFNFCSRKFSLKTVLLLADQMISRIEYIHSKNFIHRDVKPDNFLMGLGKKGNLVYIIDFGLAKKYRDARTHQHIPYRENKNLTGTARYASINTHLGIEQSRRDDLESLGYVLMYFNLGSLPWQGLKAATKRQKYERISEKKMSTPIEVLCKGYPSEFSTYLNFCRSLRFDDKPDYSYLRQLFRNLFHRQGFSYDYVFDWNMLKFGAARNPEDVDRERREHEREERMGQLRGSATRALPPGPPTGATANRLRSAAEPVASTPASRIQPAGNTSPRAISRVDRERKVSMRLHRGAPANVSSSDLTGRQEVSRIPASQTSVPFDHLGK
T3 sequence (P16234 24-1089): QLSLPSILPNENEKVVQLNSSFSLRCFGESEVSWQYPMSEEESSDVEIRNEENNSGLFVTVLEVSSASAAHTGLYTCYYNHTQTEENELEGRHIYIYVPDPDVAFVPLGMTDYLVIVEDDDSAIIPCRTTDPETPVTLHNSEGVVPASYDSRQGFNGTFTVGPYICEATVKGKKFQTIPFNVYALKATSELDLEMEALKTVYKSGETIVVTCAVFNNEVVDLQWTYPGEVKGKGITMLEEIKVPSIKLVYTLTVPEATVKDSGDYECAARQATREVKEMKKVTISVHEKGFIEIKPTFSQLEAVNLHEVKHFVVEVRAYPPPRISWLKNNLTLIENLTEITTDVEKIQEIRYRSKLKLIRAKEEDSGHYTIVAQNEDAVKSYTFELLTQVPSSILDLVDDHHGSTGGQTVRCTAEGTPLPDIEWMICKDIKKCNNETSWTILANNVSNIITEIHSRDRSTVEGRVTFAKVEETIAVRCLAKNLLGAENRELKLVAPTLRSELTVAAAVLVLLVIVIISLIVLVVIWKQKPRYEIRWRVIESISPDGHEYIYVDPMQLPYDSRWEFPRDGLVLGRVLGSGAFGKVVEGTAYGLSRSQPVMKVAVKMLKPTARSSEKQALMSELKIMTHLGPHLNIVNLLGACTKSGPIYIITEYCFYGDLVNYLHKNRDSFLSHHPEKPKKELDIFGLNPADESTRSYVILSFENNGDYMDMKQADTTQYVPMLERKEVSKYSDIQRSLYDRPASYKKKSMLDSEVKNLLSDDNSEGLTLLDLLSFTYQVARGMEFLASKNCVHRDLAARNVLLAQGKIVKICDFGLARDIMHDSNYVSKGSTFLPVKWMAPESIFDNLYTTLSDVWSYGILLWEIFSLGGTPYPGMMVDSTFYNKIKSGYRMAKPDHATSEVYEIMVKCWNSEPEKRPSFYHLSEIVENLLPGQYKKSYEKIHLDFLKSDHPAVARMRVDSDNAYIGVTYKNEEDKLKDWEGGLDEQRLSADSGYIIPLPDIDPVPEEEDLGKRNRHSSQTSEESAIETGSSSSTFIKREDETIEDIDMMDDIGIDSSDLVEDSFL

For `COc1ccc(-c2cc(C(=O)Nc3cc(-c4c(-c5ccc(F)cc5)noc4C(C)C)ccn3)n(CC3NCC(O)C3O)c2)cc1` (stereo not shown) [29d], the midpoint of inhibition in assay [1], the IC50, lay at 0.065 ± 0.012 µM. For the same compound, the remaining activity at 10 µM in assay [1] (10 µM compound, read-out: CK1ε Residual Activity [%] at 10 µM ± SD) amounted to 12 ± 2%. The viability (as a rule, a read-out of living cells in per cent, often relative to untreated cells) at 5 µM in assay [2] (5 µM) amounted to 76 ± 13%. Also, the viability at 10 µM in assay [2] (10 µM) is 51 ± 8%. Moreover, the viability at 20 µM in assay [2] (20 µM) was 14 ± 2%. In addition, in assay [2], the EC50 – broadly, the concentration that produces a half-maximal response – was 8 ± 1.7 µM. For the same compound, the remaining activity at 1 µM in assay [3] came out at 108%; in assay [4], 89%; in assay [5], 92%; in assay [6], 108%.
